# Experimental data as given in patent US20200369728A1, “PEPTIDOMIMETIC MACROCYCLES AND USES THEREOF” (Aileron Therapeutics, Inc., priority 2015, published 2020).
# Bridge positions count the residues as written; N and C are the ends. Square brackets hold non-standard residues; d marks the D form. Peptide text beside a SMILES is read from it. R8 = C=CCCCCCC[C@@](C)(N)C(=O)O; S5 = C=CCCC[C@](C)(N)C(=O)O; Nle = CCCC[C@H](N)C(=O)O
# Tests used:
# SJSA-1 = assay: Cell viability assay (MTT), SJSA-1; settings: read-out: SJSA-1 EC50 (72 h); 72 h, MTT
# [1] = Circular dichroism (CD) analysis of alpha-helicity; format: physicochemical; settings: for Molar Ellipticity TFE − Molar Ellipticity Benign / Molar Ellipticity 50% TFE (222 in 50% TFE) / Molar Ellipticity Benign (222 in 0% TFE): 222 nm; for Molar Ellipticity 50% TFE (222 in 50% TFE): CD buffer with 50% TFE; for Molar Ellipticity 50% TFE (222 in 50% TFE) / Molar Ellipticity Benign (222 in 0% TFE): 0.05 mg/ml, 4° C.; for Molar Ellipticity Benign (222 in 0% TFE): benign CD buffer (20 mM phosphoric acid, pH 2); for % Helix benign compared to 50% TFE parent (CD): benign buffer
# Method: Peptide solutions were analyzed by CD spectroscopy using a Jasco J-815 spectropolarimeter (Jasco Inc., Easton, Md.) with the Jasco Spectra Manager Ver. 2 system software. A Peltier temperature controller was used to maintain temperature control of the optical cell. Results are expressed as mean molar ellipticity (deg cm^2 dmol^−1) as calculated from the equation [0]=θobs·MRW/10*l*c where θobs is the observed ellipticity in millidegrees, MRW is the mean residue weight of the peptide (peptide molecular weight/number of residues), 1 is the optical path length of the cell in centimeters, and c is the peptide concentration in mg/ml. Peptide concentrations were determined by amino acid analysis. Stock solutions of peptides were prepared in benign CD buffer (20 mM phosphoric acid, pH 2). The stocks were used to prepare peptide solutions of 0.05 mg/ml in either benign CD buffer or CD buffer with 50% trifluoroethanol (TFE) for analyses in a 10 mm pathlength cell. Variable wavelength measurements of peptide solutions were scanned at 4° C. from 195 to 250 nm, in 0.2 nm increments, and a scan rate 50 nm per minute. The average of six scans was reported.
# Caspase 3 = Caspase 3 detection assay in SJSA1 cells; format: cell-based; settings: SJSA1, 48 h, Caspase 3 activation over DMSO-treated cells
# SJSA-1 cells = assay: Cell lysis by peptidomimetic macrocycles (LDH release); format: cell-based; settings: SJSA-1, 1 h
# How it was run: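 SJSA-1 cells plated the day before, switched to RPMI with 1% FBS, then exposed 1 h at 37 °C to macrocycle at final 50 μM to 6.25 μM in 0.5% DMSO. LDH released into the supernatant was measured by kit. Controls: 0.5% DMSO (non-lytic), 10 μM melittin and 1% Triton X-100 (lytic).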
# RKO = assay: Cell viability assay (MTT), RKO; settings: read-out: RKO EC50 (72 h)
SMILES,% Helix 50% TFE compared to 50% TFE parent (CD) [1] [%],Molar Ellipticity TFE − Molar Ellipticity Benign [1] [deg cm^2 dmol^−1],Molar Ellipticity 50% TFE (222 in 50% TFE) [1] [deg cm^2 dmol^−1],Molar Ellipticity Benign (222 in 0% TFE) [1] [deg cm^2 dmol^−1],% Helix benign compared to 50% TFE parent (CD) [1] [%],EC50 (SJSA-1) [µM],caspase 0.3 μM (Caspase 3),caspase 3 μM (Caspase 3),caspase 10 μM (Caspase 3),caspase 30 μM (Caspase 3),6.25 μM % Lysed cells (1 h LDH) (SJSA-1 cells) [%],25 μM % Lysed cells (1 h LDH) (SJSA-1 cells) [%],50 μM % Lysed cells (1 h LDH) (SJSA-1 cells) [%],EC50 (RKO) [µM],caspase 1 μM (Caspase 3)
"CC(=O)N[C@@H](CC(C)C)C(=O)N[C@H](C(=O)N[C@@H](Cc1ccccc1)C(=O)N[C@]1(C)CCCCCCC=CCCC[C@@](C)(C(=O)N[C@@H](C)C(=O)N[C@@H](C)C(=O)N[C@@H](C)C(=O)N[C@H](C)C(=O)N[C@@H](C)C(=O)N[C@H](C)C(N)=O)NC(=O)[C@H](CC(C)C)NC(=O)[C@H](CCC(N)=O)NC(=O)[C@H](C)NC(=O)[C@H](Cc2c[nH]c3ccccc23)NC(=O)[C@H](Cc2ccc(O)cc2)NC(=O)[C@H](CCC(=O)O)NC1=O)[C@@H](C)O (single isomer, unassigned) [compound 571]",,,,,,< 5,,,,,,,,,
CC(=O)N[C@@H](CC(C)C)C(=O)N[C@H](C(=O)N[C@@H](Cc1ccccc1)C(=O)N[C@]1(C)CCCCCC/C=C/CCC[C@@](C)(C(=O)N[C@@H](C)C(=O)N[C@@H](C)C(=O)N[C@@H](C)C(=O)N[C@@H](C)C(=O)N[C@H](C)C(=O)N[C@H](C)C(N)=O)NC(=O)[C@H](CC(C)C)NC(=O)[C@H](CCC(N)=O)NC(=O)[C@H](C)NC(=O)[C@H](Cc2c[nH]c3ccccc23)NC(=O)[C@H](Cc2ccc(O)cc2)NC(=O)[C@H](CCC(=O)O)NC1=O)[C@@H](C)O [compound 572],,,,,,< 5,,,,,,,,,
"CC(=O)N[C@@H](CC(C)C)C(=O)N[C@H](C(=O)N[C@@H](Cc1ccccc1)C(=O)N[C@]1(C)CCCCCCC=CCCC[C@@](C)(C(=O)N[C@@H](C)C(=O)N[C@@H](C)C(=O)N[C@@H](C)C(=O)N[C@@H](C)C(=O)N[C@@H](C)C(=O)N[C@H](C)C(N)=O)NC(=O)[C@H](CC(C)C)NC(=O)[C@H](CCC(N)=O)NC(=O)[C@H](C)NC(=O)[C@H](Cc2c[nH]c3ccccc23)NC(=O)[C@H](Cc2ccc(O)cc2)NC(=O)[C@H](CCC(=O)O)NC1=O)[C@@H](C)O (single isomer, unassigned) [compound 449]",,,,,,< 5,,,,,,,,,
CC(=O)N[C@@H](CC(C)C)C(=O)N[C@H](C(=O)N[C@@H](Cc1ccccc1)C(=O)N[C@]1(C)CCCCCCC=CCCC[C@@](C)(C(=O)N[C@@H](C)C(=O)N[C@@H](C)C(=O)N[C@@H](C)C(=O)N[C@@H](C)C(=O)N[C@H](C)C(N)=O)NC(=O)[C@H](CC(C)C)NC(=O)[C@H](CCC(N)=O)NC(=O)[C@H](C)NC(=O)[C@H](Cc2c[nH]c3ccccc23)NC(=O)[C@H](Cc2ccc(O)cc2)NC(=O)[C@H](C)NC1=O)[C@@H](C)O [compound 233],131.2,−18554.7,−19032.6,−477.9,3.3,,6,17,22,23,2.5,3.5,6,,8
CC(=O)N[C@@H](CC(C)C)C(=O)N[C@H](C(=O)N[C@@H](Cc1ccccc1)C(=O)N[C@]1(C)CCCCCCC=CCCC[C@@](C)(C(=O)N[C@@H](Cc2c[nH]cn2)C(=O)N[C@@H](Cc2c[nH]cn2)C(=O)N[C@@H](CC(C)C)C(=O)N[C@H](C)C(N)=O)NC(=O)[C@H](CC(C)C)NC(=O)[C@H](CCC(N)=O)NC(=O)[C@H](C)NC(=O)[C@H](Cc2c[nH]c3ccccc23)NC(=O)[C@H](Cc2ccc(O)cc2)NC(=O)[C@H](C)NC1=O)[C@@H](C)O [compound 43] (Ac-LTF[R8]AYWAQL[S5]HHL[dA]-NH2; staple 4-11),116.4,2912.9,−18247.4,−15334.5,97.8,,,,,,0,−1,−1,,
CCCC[C@H](NC(=O)[C@H](CCC(N)=O)NC(=O)[C@H](CCC(N)=O)NC(=O)[C@]1(C)CCCC=CCCCCCC[C@@](C)(NC(=O)[C@H](Cc2ccccc2)NC(C)=O)C(=O)N[C@@H](C)C(=O)N[C@@H](Cc2ccc(O)cc2)C(=O)N[C@@H](Cc2c[nH]c3ccccc23)C(=O)N[C@@H]([C@@H](C)O)C(=O)N[C@@H](C)C(=O)N[C@@H](CC(C)C)C(=O)N1)C(=O)N[C@@H](C(N)=O)C(C)C [compound 41] (Ac-F[R8]AYWTAL[S5]QQ[Nle][dV]-NH2; staple 2-9),136,,−21319.4,−909,5.8,,,,,,,,,,
CC(=O)N[C@@H](CC(C)C)C(=O)N[C@H](C(=O)N[C@@H](Cc1ccc(F)c(F)c1)C(=O)N[C@]1(C)CCCCCC/C=C/CCC[C@@](C)(C(=O)N[C@@H](CO)C(=O)N[C@@H](C)C(=O)N[C@@H](C)C(N)=O)NC(=O)[C@H](CCC(C)C)NC(=O)[C@H](CCC(N)=O)NC(=O)[C@H](C)NC(=O)[C@H](Cc2c[nH]c3ccccc23)NC(=O)[C@H](Cc2ccc(O)cc2)NC(=O)[C@H](CCC(=O)O)NC1=O)[C@@H](C)O [compound 160],,,,,,,2,10,16,31,−1,−1,1,> 30,

# Further lines, with some results ahead:
% Helix 50% TFE compared to 50% TFE parent (CD) [1] [%],Molar Ellipticity TFE − Molar Ellipticity Benign [1] [deg cm^2 dmol^−1],Molar Ellipticity 50% TFE (222 in 50% TFE) [1] [deg cm^2 dmol^−1],Molar Ellipticity Benign (222 in 0% TFE) [1] [deg cm^2 dmol^−1],% Helix benign compared to 50% TFE parent (CD) [1] [%],SMILES,EC50 (SJSA-1) [µM],caspase 0.3 μM (Caspase 3),caspase 3 μM (Caspase 3),caspase 10 μM (Caspase 3),caspase 30 μM (Caspase 3),6.25 μM % Lysed cells (1 h LDH) (SJSA-1 cells) [%],25 μM % Lysed cells (1 h LDH) (SJSA-1 cells) [%],50 μM % Lysed cells (1 h LDH) (SJSA-1 cells) [%],EC50 (RKO) [µM],caspase 1 μM (Caspase 3)
123.9,−17760.8,−17974,−213.2,1.5,"CC(=O)N[C@@H](CC(C)C)C(=O)N[C@H](C(=O)N[C@@H](Cc1ccccc1)C(=O)N[C@]1(C)CCCCCCC=CCCC[C@@](C)(C(=O)N[C@@H](C)C(=O)N[C@@H](C)C(=O)N[C@@H](C)C(=O)N[C@H](C)C(N)=O)NC(=O)[C@H](CC(C)C)NC(=O)[C@H](CCC(N)=O)NC(=O)[C@H](C)NC(=O)[C@H](Cc2c[nH]c3ccccc23)NC(=O)[C@H](Cc2ccc(O)cc2)NC(=O)[C@H](C)NC1=O)[C@@H](C)O (single isomer, unassigned) [compound 230]",,1,2,3,11,0.5,0,3,,
106.1,16225.2,−16623.4,−398.2,2.5,CC(=O)N[C@@H](CC(C)C)C(=O)N[C@H](C(=O)N[C@@H](Cc1ccccc1)C(=O)N[C@]1(C)CCCCCCC=CCCC[C@@](C)(C(=O)N[C@@H](CO)C(=O)N[C@@H](C)C(=O)N[C@@H](C)C(N)=O)NC(=O)[C@H](CC(C)C)NC(=O)[C@H](CCC(N)=O)NC(=O)[C@H](C)NC(=O)[C@H](Cc2c[nH]c3ccccc23)NC(=O)[C@H](Cc2ccc(O)cc2)NC(=O)[C@H](C)NC1=O)[C@@H](C)O [compound 11] (Ac-LTF[R8]AYWAQL[S5]SAA-NH2; staple 4-11),,1,5,23,33.5,−2,2,3,< 5,
137.3,−20045.4,−19921.4,124,−0.9,CC(=O)N[C@@H](CC(C)C)C(=O)N[C@H](C(=O)N[C@@H](Cc1ccccc1)C(=O)N[C@]1(C)CCCCCCC=CCCC[C@@](C)(C(=O)N[C@@H](CO)C(=O)N[C@@H](C)C(=O)N[C@@H](Cc2ccccc2)C(N)=O)NC(=O)[C@H](CC(C)C)NC(=O)[C@H](CCC(N)=O)NC(=O)[C@H](C)NC(=O)[C@H](Cc2c[nH]c3ccccc23)NC(=O)[C@H](Cc2ccc(O)cc2)NC(=O)[C@H](C)NC1=O)[C@@H](C)O [compound 7] (Ac-LTF[R8]AYWAQL[S5]SAF-NH2; staple 4-11),,0.93,5.08,21.7,23.96,0,0,0,< 5,1.4
